The source made the active and inactive calls. The rule behind the calls is not given here.

The target of the assay is Botulinum neurotoxin type A light chain protease (Clostridium botulinum A str. ATCC 3502). The assay is described as follows: Botulinum neurotoxin type A light chain protease inhibitors, multiplex microsphere dose response, confirmatory (AID 651879). The note with it: multiplex microsphere protease cleavage assay, flow cytometry. (In general: Flow cytometry measures light scatter and fluorescence of single cells or particles in a stream.)
A word on the EC50: it is the concentration that produces a half-maximal response. As to `c1ccc(C2CC(c3cccnc3)=NN2c2ccccc2)cc1` (centres undefined), the EC50 is > 20 µM (inactive).

Regarding `CSc1ccc(C2=NN(c3ccc([N+](=O)[O-])cc3)C(c3ccccc3)C2)cc1` (centres undefined), the EC50 is 0.5 µM.

As to `CS(=O)(=O)c1ccc(N2N=C(c3ccccc3)CC2c2ccccc2)cc1` (centres undefined), the EC50 was > 20 µM (inactive).

With `NS(=O)(=O)c1ccc(N2N=C(c3ccccc3)CC2c2ccccc2)cc1` (centres undefined), the EC50 was > 20 µM (inactive).

As to `CNC(=O)c1ccc(N2N=C(c3ccc(SC)cc3)CC2c2ccccc2)cc1` (centres undefined), the EC50 was > 20 µM (inactive).

Take `CC(C)CNC(=O)c1ccc(N2N=C(c3ccccc3)CC2c2ccccc2)cc1` (centres undefined): the EC50 was > 20 µM (inactive).

`COc1ccc(N2N=C(c3ccccc3)CC2c2ccccc2)cc1` (centres undefined): the EC50 was > 20 µM (inactive).

On to `O=[N+]([O-])c1ccc(N2N=C(c3ccccc3)CC2c2ccccc2)cc1` (centres undefined), for which the EC50 is > 20 µM (inactive).

Regarding `COc1ccc(N2N=C(c3ccc(SC)cc3)CC2c2ccccc2)cc1` (centres undefined), the EC50 was > 20 µM (inactive).

In the case of `CSc1ccc(C2=NN(c3ccc(S(C)(=O)=O)cc3)C(c3ccccc3)C2)cc1` (centres undefined), the EC50 was > 20 µM (inactive).

For `COc1ccc(N2N=C(c3cccnc3)CC2c2ccccc2)cc1` (centres undefined), the EC50 is > 20 µM (inactive).

Take `CSc1ccc(C2=NN(c3ccc(C(=O)N4CCOCC4)cc3)C(c3ccccc3)C2)cc1` (centres undefined): the EC50 was > 20 µM (inactive).

For `CSc1ccc(C2=NN(c3ccccc3)C(c3ccccc3)C2)cc1` (centres undefined), the EC50 was > 20 µM (inactive).

Regarding `CSc1ccc(C2=NN(c3ccc(S(N)(=O)=O)cc3)C(c3ccccc3)C2)cc1` (centres undefined), the EC50 was > 20 µM (inactive).

As for `COc1ccc(N2N=C(c3ccccn3)CC2c2ccccc2)cc1` (centres undefined), the EC50 is > 20 µM (inactive).

As to `CSc1ccc(C2=NN(c3ccc(C(=O)N4CCCCC4)cc3)C(c3ccccc3)C2)cc1` (centres undefined), the EC50 is > 20 µM (inactive).

On to `COc1ccc(N2N=C(c3ccncc3)CC2c2ccccc2)cc1` (centres undefined), for which the EC50 was > 20 µM (inactive).

For the compound `NS(=O)(=O)c1ccc(N2N=C(c3ccncc3)CC2c2ccccc2)cc1` (centres undefined), the EC50 is > 20 µM (inactive).

Turning to `O=C(c1ccc(N2N=C(c3ccccc3)CC2c2ccccc2)cc1)N1CCCCC1` (centres undefined), the EC50 was > 20 µM (inactive).

On to `CC(C)NC(=O)c1ccc(N2N=C(c3ccccc3)CC2c2ccccc2)cc1` (centres undefined), for which the EC50 is > 20 µM (inactive).

With `c1ccc(C2=NN(c3ccccc3)C(c3ccccc3)C2)cc1` (centres undefined), the EC50 was > 20 µM (inactive).

`CS(=O)(=O)c1ccc(N2N=C(c3cccnc3)CC2c2ccccc2)cc1` (centres undefined): the EC50 was > 20 µM (inactive).

Regarding `c1ccc(C2CC(c3ccncc3)=NN2c2ccccc2)cc1` (centres undefined), the EC50 is > 20 µM (inactive).

Consider `CNC(=O)c1ccc(N2N=C(c3ccccc3)CC2c2ccccc2)cc1` (centres undefined), for which the EC50 is > 20 µM (inactive).

In the case of `c1ccc(C2CC(c3ccccn3)=NN2c2ccccc2)cc1` (centres undefined), the EC50 was > 20 µM (inactive).

`NS(=O)(=O)c1ccc(N2N=C(c3cccnc3)CC2c2ccccc2)cc1` (centres undefined): the EC50 is > 20 µM (inactive).

Consider `O=C(c1ccc(N2N=C(c3ccccc3)CC2c2ccccc2)cc1)N1CCOCC1` (centres undefined), for which the EC50 is > 20 µM (inactive).

Regarding `c1ccc(-c2cc(-c3ccccc3)n(-c3ccccc3)n2)cc1`, the EC50 is > 20 µM (inactive).

For the compound `CS(=O)(=O)c1ccc(N2N=C(c3ccncc3)CC2c2ccccc2)cc1` (centres undefined), the EC50 is > 20 µM (inactive).

These data come from PubChem BioAssay AID651879 (NMMLSC, 2012).
